Reference: patent US20050197338A1, “Substituted pyrazole urea compounds for the treatment of inflammation” (priority 2003, published 2005)

Biological target: T1, Rat IKK-2 (Rattus norvegicus, UniProt Q9QY78)
T1 sequence (Q9QY78 1-757): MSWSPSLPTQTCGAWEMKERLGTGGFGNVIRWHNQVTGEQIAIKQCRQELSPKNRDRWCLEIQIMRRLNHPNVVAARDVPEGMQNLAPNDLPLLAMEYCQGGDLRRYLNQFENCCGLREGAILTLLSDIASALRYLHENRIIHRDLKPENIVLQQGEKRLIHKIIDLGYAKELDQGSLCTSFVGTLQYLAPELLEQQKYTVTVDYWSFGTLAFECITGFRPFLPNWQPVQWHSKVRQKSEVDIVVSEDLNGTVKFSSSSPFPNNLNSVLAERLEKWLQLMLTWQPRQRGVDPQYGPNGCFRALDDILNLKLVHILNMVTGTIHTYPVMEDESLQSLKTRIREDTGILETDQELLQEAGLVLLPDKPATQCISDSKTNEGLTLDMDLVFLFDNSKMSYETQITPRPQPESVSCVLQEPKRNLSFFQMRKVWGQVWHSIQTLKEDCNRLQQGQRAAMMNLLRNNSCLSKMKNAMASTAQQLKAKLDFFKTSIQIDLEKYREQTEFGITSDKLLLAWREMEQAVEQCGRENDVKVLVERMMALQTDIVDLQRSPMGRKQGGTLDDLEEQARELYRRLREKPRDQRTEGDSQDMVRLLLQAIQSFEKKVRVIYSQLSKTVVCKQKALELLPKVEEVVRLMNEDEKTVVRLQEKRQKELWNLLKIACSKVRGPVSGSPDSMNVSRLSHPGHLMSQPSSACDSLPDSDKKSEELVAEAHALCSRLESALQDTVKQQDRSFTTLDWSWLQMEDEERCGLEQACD
Assay: Rat IKK-2 enzyme assay
Format: biochemical
Conditions: read-out: IC50 (μM) rIKK-2

IC50 [µM] | Compound
1.08 | COc1ccc(-n2cc(NC(N)=O)c(C(N)=O)n2)cc1Cl [Example 209, 4-[(Aminocarbonyl)amino]-1-(3-chloro-4-methoxyphenyl)-1H-pyrazole-3-carboxamide]
0.091 | NC(=O)Nc1cn(-c2ccc(I)cc2)nc1C(N)=O [Example 215, 4-[(aminocarbonyl)amino]-1-(4-iodophenyl)-1H-pyrazole-3-carboxamide]
0.292 | NC(=O)Nc1cn(-c2ccc(Br)c(F)c2)nc1C(N)=O [Example 225, 4-[(aminocarbonyl)amino]-1-(4-bromo-3-fluorophenyl)-1H-pyrazole-3-carboxamide]
0.249 | NC(=O)Nc1cn(-c2ccc(-c3cccc(O)c3)cc2F)nc1C(N)=O [Example 247, 4-[(aminocarbonyl)amino]-1-(3-fluoro-3′-hydroxy-1,1′-biphenyl-4-yl)-1H-pyrazole-3-carboxamide]
